Values after ≈ are worked out from the molar mass of the structure shown.
How the values were obtained:
S. aureus ATCC 29213 = assay: MIC by broth microdilution (CLSI), quality control strain S. aureus ATCC 29213; format: cell-based, Staphylococcus aureus; settings: multiple values when multiple MIC assays were conducted; for MIC: Staphylococcus aureus, ATCC29213, S. aureus ATCC 29213
Description: Minimum inhibitory concentrations were determined using the quality control strain S. aureus ATCC 29213 (Table 1) by the broth microdilution method according to guidelines of the Clinical and Laboratory Standards Institute (CLSI) (Cockerill, F. R.; et al., 2012, Methods for dilution antimicrobial susceptibility tests for bacteria that grow aerobically; approved standard-ninth edition. MA07-A9. Clinical and Laboratory Standard Institute, Wayne, Pa.). […] Published quality control ranges for gepotidacin and ciprofloxacin were used to validate each assay. MICs for selected compounds were also determined using a USA 300 strain of MRSA (Hidron, et al., Lancet Infect. Dis. 2009, 9:384-392). Vancomycin was used as an additional control.

USA 300 strain of MRSA = assay: MIC by broth microdilution, USA 300 strain of MRSA; format: cell-based, Staphylococcus aureus; settings: Staphylococcus aureus, multiple values when multiple MIC assays were conducted, read-out: MIC USA300
Description: Minimum inhibitory concentrations were determined using the quality control strain S. aureus ATCC 29213 (Table 1) by the broth microdilution method according to guidelines of the Clinical and Laboratory Standards Institute (CLSI) (Cockerill, F. R.; et al., 2012, Methods for dilution antimicrobial susceptibility tests for bacteria that grow aerobically; approved standard-ninth edition. MA07-A9. Clinical and Laboratory Standard Institute, Wayne, Pa.). […] MICs for selected compounds were also determined using a USA 300 strain of MRSA (Hidron, et al., Lancet Infect. Dis. 2009, 9:384-392). Vancomycin was used as an additional control.

SMILES	MIC (S. aureus ATCC 29213)	MIC (USA 300 strain of MRSA)	MIC 29213 (S. aureus ATCC 29213; S. aureus ATCC 29213)
COc1ccc2ncc(=O)n(CC(O)[C@H]3OC[C@H](NCc4ccc5c(n4)NC(=O)CO5)CO3)c2c1 (relative stereo) [AB-0078, 6-(((2-(1-hydroxy-2-(7-methoxy-2-oxoquinoxalin-1(2H)-yl)ethyl)-trans-1,3-dioxan-5-yl)amino)methyl)-2H-pyrido[3,2-b][1,4]oxazin-3(4H)-one]	4 µg/mL (≈ 8.27 µM)	–	–
COc1ccc2ncc(=O)n(CC[C@H]3OC[C@H](NCc4cc5c(cn4)OCCO5)CO3)c2c1 [AB-0003, 1-(2-(5-(((2,3-dihydro-[1,4]dioxino[2,3-c]pyridin-7-yl)methyl)amino)-1,3-trans-dioxan-2-yl)ethyl)-7-methoxyquinoxalin-2(1H)-one]	8 µg/mL (≈ 17.6 µM)	–	–
COc1ccc2ncc(=O)n(CC[C@H]3OC[C@H](NCc4cc5c(cn4)OCCC5)CO3)c2c1 [AB-0006, 1-(2-(5-(((3,4-dihydro-2H-pyrano[2,3-c]pyridin-6-yl)methyl)amino)-trans-1,3-dioxan-2-yl)ethyl)-7-methoxyquinoxalin-2(1H)-one]	8 µg/mL (≈ 17.7 µM)	–	–
COc1ccc2ncc(=O)n(CC[C@H]3OC[C@H](NCc4ccc(Cl)c(Cl)c4)CO3)c2c1 [AB-0007, 1-(2-(5-((3,4-dichlorobenzyl)amino)-trans-1,3-dioxan-2-yl)ethyl)-7-methoxyquinoxalin-2(1H)-one]	4 µg/mL (≈ 8.61 µM)	–	–
COc1ccc2nccc(/C=C/[C@H]3OC[C@H](NCc4ccc(Cl)c(Cl)c4)CO3)c2c1 [AB-0009, N-(3,4-dichlorobenzyl)2-((E)-2-(6-methoxyquinolin-4-yl)vinyl)-trans-1,3-dioxan-5-amine]	≤ 0.25 µg/mL	0.5 µg/mL (≈ 1.12 µM)	–
COc1ccc2nccc(CC[C@H]3OC[C@H](NCc4cc(F)ccc4F)CO3)c2c1 [AB-0022, N-(2,5-difluorobenzyl)-2-(2-(6-methoxyquinolin-4-yl)ethyl)-trans-1,3-dioxan-5-amine]	64 µg/mL (≈ 154 µM)	–	–
COc1ccc2nccc(CC[C@H]3OC[C@H](NCc4ccc(F)c(F)c4)CO3)c2c1 [AB-0024, N-(3,4-difluorobenzyl)-2-(2-(6-methoxyquinolin-4-yl)ethyl)-trans-1,3-dioxan-5-amine]	64 µg/mL (≈ 154 µM)	–	–
COc1ccc2nccc(CC[C@H]3OC[C@H](NCc4c(F)cccc4F)CO3)c2c1 [AB-0025, N-(2,6-difluorobenzyl)-2-(2-(6-methoxyquinolin-4-yl)ethyl)-trans-1,3-dioxan-5-amine]	> 64 µg/mL	–	–
COc1ccc2nccc(CC[C@H]3OC[C@H](NCc4cccc(C#N)c4)CO3)c2c1 [AB-0026, 3-(((2-(2-(6-methoxyquinolin-4-yl)ethyl)-trans-1,3-dioxan-5-yl)amino)methyl)benzonitrile]	64 µg/mL (≈ 159 µM)	–	–
COc1ccc2nccc(CC[C@H]3OC[C@H](NCc4ccccc4OC)CO3)c2c1 [AB-0027, N-(2-methoxybenzyl)-2-(2-(6-methoxyquinolin-4-yl)ethyl)-trans-1,3-dioxan-5-amine]	> 64 µg/mL	–	–
COc1ccc2nccc(CC[C@H]3OC[C@H](NCc4cccc(F)c4F)CO3)c2c1 [AB-0028, N-(2,3-difluorobenzyl)-2-(2-(6-methoxyquinolin-4-yl)ethyl)-trans-1,3-dioxan-5-amine]	64 µg/mL (≈ 154 µM)	–	–
COc1ccc2nccc(CC[C@H]3OC[C@H](NCc4cc(F)cc(F)c4)CO3)c2c1 [AB-0029, N-(3,5-difluorobenzyl)-2-(2-(6-methoxyquinolin-4-yl)ethyl)-trans-1,3-dioxan-5-amine]	16 µg/mL (≈ 38.6 µM)	–	–
COc1ccc2nccc(CC[C@H]3OC[C@H](NCc4ccccc4C)CO3)c2c1 [AB-0032, 2-(2-(6-methoxyquinolin-4-yl)ethyl)-N-(2-methylbenzyl)-trans-1,3-dioxan-5-amine]	> 64 µg/mL	–	–
COc1ccc2nccc(CC[C@H]3OC[C@H](NCc4ccccc4F)CO3)c2c1 [AB-0033, N-(2-fluorobenzyl)-2-(2-(6-methoxyquinolin-4-yl)ethyl)-trans-1,3-dioxan-5-amine]	> 64 µg/mL	–	–
COc1cccc(CN[C@H]2CO[C@H](CCc3ccnc4ccc(OC)cc34)OC2)c1 [AB-0034, N-(3-methoxybenzyl)-2-(2-(6-methoxyquinolin-4-yl)ethyl)-trans-1,3-dioxan-5-amine]	16 µg/mL (≈ 39.2 µM)	–	–
COc1ccc2nccc(CC[C@H]3OC[C@H](NCc4ccsc4)CO3)c2c1 [AB-0035, 2-(2-(6-methoxyquinolin-4-yl)ethyl)-N-(thiophen-3-ylmethyl)-trans-1,3-dioxan-5-amine]	> 64 µg/mL	–	–
COc1ccc2nccc(CC[C@H]3OC[C@H](NCc4cccs4)CO3)c2c1 [AB-0036, 2-(2-(6-methoxyquinolin-4-yl)ethyl)-N-(thiophen-2-ylmethyl)-trans-1,3-dioxan-5-amine]	> 64 µg/mL	–	–
COc1ccc2nccc(CC[C@H]3OC[C@H](NCc4cccc(Cl)c4)CO3)c2c1 [AB-0037, N-(3-chlorobenzyl)-2-(2-(6-methoxyquinolin-4-yl)ethyl)-trans-1,3-dioxan-5-amine]	32 µg/mL (≈ 77.5 µM)	–	–

SMILES	MIC (S. aureus ATCC 29213)	MIC (USA 300 strain of MRSA)	MIC 29213 (S. aureus ATCC 29213; S. aureus ATCC 29213)
COc1ccc2nccc(CC[C@H]3OC[C@H](NCc4ccccc4)CO3)c2c1 [AB-0038, N-benzyl-2-(2-(6-methoxyquinolin-4-yl)ethyl)-trans-1,3-dioxan-5-amine]	> 64 µg/mL	–	–
COc1ccc2nccc(CC[C@H]3OC[C@H](NCc4ccc(F)cc4F)CO3)c2c1 [AB-0039, N-(2,4-difluorobenzyl)-2-(2-(6-methoxyquinolin-4-yl)ethyl)-trans-1,3-dioxan-5-amine]	64 µg/mL (≈ 154 µM)	–	–
COc1ccc2nccc(CC[C@H]3OC[C@H](NCc4cccc(OC)n4)CO3)c2c1 [AB-0040, N-((6-methoxypyridin-2-yl)methyl)-2-(2-(6-methoxyquinolin-4-yl)ethyl)-trans-1,3-dioxan-5-amine]	> 64 µg/mL	–	–
COc1ccc2nccc(CC[C@H]3OC[C@H](NCc4ccc(F)cc4)CO3)c2c1 [AB-0041, N-(4-fluorobenzyl)-2-(2-(6-methoxyquinolin-4-yl)ethyl)-trans-1,3-dioxan-5-amine]	> 64 µg/mL	–	–
COc1ccc2nccc(CC[C@H]3OC[C@H](NCc4cccc(C)c4)CO3)c2c1 [AB-0042, 2-(2-(6-methoxyquinolin-4-yl)ethyl)-N-(3-methylbenzyl)-trans-1,3-dioxan-5-amine]	16 µg/mL (≈ 40.8 µM)	–	–
COc1ccc2nccc(CC[C@H]3OC[C@H](NCc4ccccc4Cl)CO3)c2c1 [AB-0043, N-(2-chlorobenzyl)-2-(2-(6-methoxyquinolin-4-yl)ethyl)-trans-1,3-dioxan-5-amine]	> 64 µg/mL	–	–
COc1ccc2nccc(CC[C@H]3OC[C@H](NCCc4ccccc4)CO3)c2c1 [AB-0045, 2-(2-(6-methoxyquinolin-4-yl)ethyl)-N-phenethyl-trans-1,3-dioxan-5-amine]	64 µg/mL (≈ 163 µM)	–	–
COc1ccc2nccc(CC[C@H]3OC[C@H](NCc4ccccn4)CO3)c2c1 [AB-0048]	8 µg/mL (≈ 21.1 µM)	–	–
COc1ccc2nccc(CC[C@H]3OC[C@H](NCc4cccnc4)CO3)c2c1 [AB-0049, 2-(2-(6-methoxyquinolin-4-yl)ethyl)-N-(pyridin-3-ylmethyl)-trans-1,3-dioxan-5-amine]	> 64 µg/mL	–	–
COc1ccc2nccc(CC[C@H]3OC[C@H](NCc4cccc(F)c4)CO3)c2c1 [AB-0050, N-(3-fluorobenzyl)-2-(2-(6-methoxyquinolin-4-yl)ethyl)-trans-1,3-dioxan-5-amine]	32 µg/mL (≈ 80.7 µM)	–	–
COc1ccc2nccc(CC[C@H]3OC[C@H](NCc4ccc(OC)nc4)CO3)c2c1 [AB-0056, N-((6-methoxypyridin-3-yl)methyl)-2-(2-(6-methoxyquinolin-4-yl)ethyl)-trans-1,3-dioxan-5-amine]	32 µg/mL (≈ 78.1 µM)	–	–
COc1ccc2nccc(CC[C@H]3OC[C@H](NCc4ccc(Cl)cn4)CO3)c2c1 [AB-0069, N-((5-chloropyridin-2-yl)methyl)-2-(2-(6-methoxyquinolin-4-yl)ethyl)-trans-1,3-dioxan-5-amine]	8 µg/mL (≈ 19.3 µM)	–	–
COc1ccc2nccc(CC[C@H]3OC[C@H](NCc4ccc(C)cn4)CO3)c2c1 [AB-0070, 2-(2-(6-methoxyquinolin-4-yl)ethyl)-N-((5-methylpyridin-2-yl)methyl)-trans-1,3-dioxan-5-amine]	4 µg/mL (≈ 10.2 µM)	–	–
COc1ccc2nccc(CC[C@H]3OC[C@H](NC(=O)c4ccccc4)CO3)c2c1 [AB-0075, N-(2-(2-(6-methoxyquinolin-4-yl)ethyl)-trans-1,3-dioxan-5-yl)benzamide]	16 µg/mL (≈ 40.8 µM)	–	32 µg/mL (≈ 81.5 µM)
COc1ccc2ncc(=O)n(CC(O)[C@H]3OC[C@H](NCc4ccc5c(c4)OCCO5)CO3)c2c1 (stereo partly drawn) [AB-0076, 1-(2-(5-(((2,3-dihydrobenzo[b][1,4]dioxin-6-yl)methyl)amino)-trans-1,3-dioxan-2-yl)-2-hydroxyethyl)-7-methoxyquinoxalin-2(1H)-one]	–	1 µg/mL (≈ 2.13 µM)	–
COc1ccc2nccc(CC[C@H]3OC[C@H](NCc4ccc(OC(F)F)cc4)CO3)c2c1 [AB-0084, N-(4-(difluoromethoxy)benzyl)-2-(2-(6-methoxyquinolin-4-yl)ethyl)-trans-1,3-dioxan-5-amine]	4 µg/mL (≈ 9 µM)	–	–
COc1ccc2nccc(CC[C@H]3OC[C@H](NC(=O)c4ccc5c(c4)OCCO5)CO3)c2c1 [AB-0088, N-(2-(2-(6-methoxyquinolin-4-yl)ethyl)-trans-1,3-dioxan-5-yl)-2,3-dihydrobenzo[b][1,4]dioxine-6-carboxamide]	8 µg/mL (≈ 17.8 µM)	–	–
COc1ccc2nccc(CC[C@H]3OC[C@H](NC(=O)c4ccc(Cl)c(Cl)c4)CO3)c2c1 [AB-0089, 3,4-dichloro-N-(2-(2-(6-methoxyquinolin-4-yl)ethyl)-trans-1,3-dioxan-5-yl)benzamide]	≤ 0.5 µg/mL	–	–

— patent US11352349B2, “Type II topoisomerase inhibitors and methods of making and using thereof” (Ohio State Innovation Foundation, priority 2017, dated 2022)
